The values that follow come from patent US20050080113A1, “Medicinal compositions” (priority 2001, published 2005).

One data set deals with TNF-α production. The data set can be described thus: Measurement of inhibiting activity of TNF-α production in LPS-stimulated THP-1 cells, ELISA (Reference Example C 2). The data set is classed as cell-based. The following applies: Homo sapiens, LPS 5 μg/mL, 4 hours, read-out: IC50 (concentration necessary for inhibiting TNF-α production by 50%). How it is done: Measurement of Inhibiting Activity of TNF-α Production
After THP-1 cells which had been cultured on PRMI 1640 medium (manufactured by Life Technologies, Inc.) containing 1% inactivated bovine fetal serum (manufactured by Life Technologies, Inc., U.S.A.) and 10 mM HEPES (pH 7.5) seeded on a 96 well-plate to 1×10^5 cells/well, 1 μL test compound dissolved in DMSO was added. After incubation at 37° C. for 1 hour in a CO2 incubator, LPS (Wako Pure Chemicals) was added to the final concentration 5 μg/mL. After cultured at 37° C. for 4 hours in a CO2 incubator, the supernatant was obtained by centrifugation. The concentration of TNF-α in the supernatant was measured by ELISA (R&D Systems, Quantikine Kit). The concentration (IC50 value) of the test compound necessary for inhibiting TNF-α production by 50% was calculated using PRIMS 2.01 (Graphpad Software).
(In general: In an ELISA, binding on a coated surface is turned into a signal by an enzyme label.)

In another data set the target is T1, human p38 MAP kinase (Homo sapiens, UniProt Q16539).
T1 construct: made in house; host or cells: Sf-21 insect cells, baculovirus (BAC-HP38 co-infected with BAC-caMKK3)
The data set can be described thus: Measurement of the enzyme inhibitory activity of active form p38 MAP kinase, 32P uptake into Myelin Basic Protein (Reference Example C 1). It counts as biochemical. As to conditions: Myelin Basic Protein substrate, 30° C., 60 minutes, read-out: IC50 (concentration necessary for inhibiting uptake of 32P into an acid insoluble fraction by 50%). On the procedure: The genetic manipulations described below were according to a method described in the book (Maniatis et al., Molecular Cloning, Cold Spring Harbor Laboratory, 1989) or methods described in the protocols attached to the reagents.
(1) Cloning of Human p38 MAP Kinase Gene and Preparation of Recombinant Baculovirus
Cloning of human p38 MAP kinase gene was performed by a PCR method using a primer set P38 U: 5′-[…] 3′ [SEQ ID NO:1] and PAG-L: 5′-[…]-3′ [SEQ ID NO:2] made by the use of kidney cDNA (Toyobo, QUICK-Clone cDNA) as a template and referring to the base sequence of p38 MAP kinase gene reported by Han et al. (Science 265 (5173), 808 811 (1994)).
A PCR reaction was performed by a Hot Start method using AmpliWax PCR Gem 100 (Takara Shuzo). As the lower mixed solution, 2 μL 10×LA PCR Buffer, 3 μL 2.5 mM dNTP solution, each 2.5 μL of 12.5 μM primer solutions, and 10 μL sterile distilled water were mixed. As the upper mixed solution, 1 μL human cardiac cDNA (1 ng/mL) as a template, 3 μL 10×LA PCR Buffer, 1 μL 2.5 mM dNTP solution, 0.5 μL TaKaRa LA Taq DNA polymerase (Takara Shuzo), and 24.5 μL sterile distilled water were mixed. One AmpliWax PCR Gem 100 (Takara Shuzo) was added to the prepared lower mixed solution and the mixture was treated at 70° C. for 5 min and for 5 min in an ice and, thereafter, the upper mixed solution was added to prepare a reaction solution for PCR. […]

A short description of data set [1]: Test using rat yeast-induced pain model animal (pain threshold, pressure device), Example 1. It counts as in vivo. As to conditions: oral, pain threshold 2 hours after administration. On the procedure:
Male Sprague-Dawley rats (4 week-old, Clear Japan) were used. A 20% yeast physiological saline solution (0.1 ml) was subcutaneously injected into right hind pedal sole to induce inflammation in the right hind pedal sole. One hour later, 0.5% aqueous methyl cellulose or Reference Example D compound 16 1 suspended in 0.5% aqueous methyl cellulose was orally administered (0.5 ml/100 g body weight). After 2 hours from sample administration, pain threshold value was measured based on false escape reaction using a pressure device. A group contained 6 rats.

Data set [2] relates to osteoclast formation in mouse bone marrow cells. In words: Inhibitory action of osteoclast formation (TRAP positive multinucleated cells, bone marrow cell culture), Example 2. As to conditions: for Osteoclast count (/well): 6 days, TRAP positive multinucleated cells, average ± standard deviation (N = 4-5). The data set is classed as cell-based. How it is done: Bone marrow cells were collected from the tibia of 8-week-old male ddY mouse and suspended in αMEM medium containing 10% FBS and sown in a 24 well plate at a density of 10^6 cells/0.5 ml/well. After static culture overnight, the medium was changed to the above-mentioned medium containing 10^−8 M 1α, 25 (OH)2D3 or Reference Example D compound 16 1 at 0.01, 0.1, 1 or 10 μM, respectively and further cultured for 6 days. After the completion of the culture, the cells were fixed and subjected to staining of tartrateresistant acid phosphatase (TRAP), which is a differentiation index of osteoclast, and TRAP positive multinucleated cells with three or more nuclei were counted as osteoclasts with a microscope.

T1 sequence (Q16539 whole entry): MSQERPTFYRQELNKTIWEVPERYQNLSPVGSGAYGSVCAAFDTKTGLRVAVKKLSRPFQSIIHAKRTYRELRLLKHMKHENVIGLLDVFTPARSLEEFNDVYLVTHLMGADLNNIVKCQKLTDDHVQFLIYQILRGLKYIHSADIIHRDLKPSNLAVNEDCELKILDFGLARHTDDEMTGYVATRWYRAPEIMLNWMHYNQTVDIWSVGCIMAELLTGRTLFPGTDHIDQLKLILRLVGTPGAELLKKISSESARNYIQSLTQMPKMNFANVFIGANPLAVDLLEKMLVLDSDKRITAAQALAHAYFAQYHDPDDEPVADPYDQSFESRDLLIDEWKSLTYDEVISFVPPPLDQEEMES

What is called melting point is the temperature of the solid-liquid transition. Molecule `CNc1nc(-c2ccc(OC)cc2)c(-c2ccncc2)s1` [13-16, N-methyl [4-(4-methoxyphenyl)-5-(4-pyridyl)-1,3-thiazol-2-yl]amine] came in with a melting point of 177 to 178 °C. Also, the IC50 with TNF-α production was 140 nM.

For `CNc1nc(-c2ccc(Cl)cc2)c(-c2ccncc2)s1` [13-70, N-methyl [4-(4-chlorophenyl)-5-(4-pyridyl)-1,3-thiazol-2-yl]amine], the melting point lay in the range of 224 to 225 °C. The IC50 in the data set with TNF-α production was determined as 180 nM.

Take `CNc1nc(-c2ccc3c(c2)CCC3)c(-c2cccnc2)s1` [13-74]: the melting point lay within 172 to 173 °C. At human p38 MAP kinase, the IC50 is 630 nM.

Consider `CCc1nc(-c2cccc(C)c2)c(-c2ccnc(NC(=O)c3ccccc3)c2)s1` [D 16-1, N-[4-[2-ethyl-4-(3-methylphenyl)-1,3-thiazol-5-yl]-2-pyridyl]benzamide], for which the antinociceptive effect result in data set [1] is “dose-dependent antinociceptive effect”. Besides, the “minimum effective dose (antinociceptive effect)” value in data set [1] is reported as 10 mg/kg. In addition, the number of osteoclasts result in data set [2] (0.01, 0.1, 1 or 10 μM) is listed as “decreased in a dose-dependent manner”. In addition, the IC50 in data set [2] (144 h, mouse bone marrow cells, 1α,25(OH)2D3, 6 days culture, read-out: IC50 value against formation of osteoclast) was 300 nM. Moreover, in data set [2] (at 10 μM), the formation of osteoclast result is “barely observed”. The “Osteoclast count (/well)” value is listed as 183.8 ± 2.9 /well in data set [2] (concentration 0.01 μM, mouse bone marrow cells); 140.8 ± 7.6 /well in data set [2] (concentration 0.1 μM, mouse bone marrow cells); 72.4 ± 4.4 /well in data set [2] (concentration 1 μM, mouse bone marrow cells); 0.6 ± 0.4 /well in data set [2] (concentration 10 μM, mouse bone marrow cells). The “concentration from which the action on osteoclast number was found significantly” value in data set [2] (mouse bone marrow cells, 0.01-10 μM tested) was 0.1 µM.
